Results reported in ChEMBL document CHEMBL3867433, “Synthesis and antimicrobial activity of styryl/pyrrolyl/pyrazolyl sulfonylmethyl-1,3,4-oxadiazolyl amines and styryl/pyrrolyl/pyrazolyl sulfonylmethyl-1,3,4-thiadiazolyl amines” (2016).

Columns and labels:
Type in all cases: functional
[1] = Antifungal activity against Penicillium chrysogenum assessed as inhibition of spore germination at 100 ug/well after 48 hrs by agar well diffusion method
Aspergillus niger [2] = assay: Antifungal activity against Aspergillus niger assessed as inhibition of spore germination at 100 ug/well after 48 hrs by agar well diffusion method; settings: read-out: DIZ
[3] = Antifungal activity against Penicillium chrysogenum assessed as inhibition of spore germination at 50 ug/well after 48 hrs by agar well diffusion method
Aspergillus niger [4] = assay: Antifungal activity against Aspergillus niger assessed as inhibition of spore germination at 50 ug/well after 48 hrs by agar well diffusion method; settings: read-out: DIZ
Klebsiella pneumoniae [5] = assay: Antibacterial activity against Klebsiella pneumoniae at 25 ug/well after 24 hrs by agar well diffusion method; settings: read-out: DIZ
Klebsiella pneumoniae [6] = assay: Antibacterial activity against Klebsiella pneumoniae at 100 ug/well after 24 hrs by agar well diffusion method; settings: read-out: DIZ
Pseudomonas aeruginosa [7] = assay: Antibacterial activity against Pseudomonas aeruginosa at 25 ug/well after 24 hrs by agar well diffusion method; settings: read-out: DIZ
Klebsiella pneumoniae [8] = assay: Antibacterial activity against Klebsiella pneumoniae at 12.5 ug/well after 24 hrs by agar well diffusion method; settings: read-out: DIZ
Staphylococcus aureus [9] = assay: Antibacterial activity against Staphylococcus aureus at 100 ug/well after 24 hrs by agar well diffusion method; settings: read-out: DIZ
Pseudomonas aeruginosa [10] = assay: Antibacterial activity against Pseudomonas aeruginosa at 12.5 ug/well after 24 hrs by agar well diffusion method; settings: read-out: DIZ
Pseudomonas aeruginosa [11] = assay: Antibacterial activity against Pseudomonas aeruginosa at 100 ug/well after 24 hrs by agar well diffusion method; settings: read-out: DIZ
Staphylococcus aureus [12] = assay: Antibacterial activity against Staphylococcus aureus at 50 ug/well after 24 hrs by agar well diffusion method; settings: read-out: DIZ
Klebsiella pneumoniae [13] = assay: Antibacterial activity against Klebsiella pneumoniae at 50 ug/well after 24 hrs by agar well diffusion method; settings: read-out: DIZ
Pseudomonas aeruginosa [14] = assay: Antibacterial activity against Pseudomonas aeruginosa at 50 ug/well after 24 hrs by agar well diffusion method; settings: read-out: DIZ
Aspergillus niger [15] = assay: Antifungal activity against Aspergillus niger assessed as inhibition of spore germination at 25 ug/well after 48 hrs by agar well diffusion method; settings: read-out: DIZ
Bacillus subtilis [16] = assay: Antibacterial activity against Bacillus subtilis at 12.5 ug/well after 24 hrs by agar well diffusion method; settings: read-out: DIZ
[17] = Antifungal activity against Penicillium chrysogenum assessed as inhibition of spore germination at 25 ug/well after 48 hrs by agar well diffusion method
Bacillus subtilis [18] = assay: Antibacterial activity against Bacillus subtilis at 100 ug/well after 24 hrs by agar well diffusion method; settings: read-out: DIZ
Bacillus subtilis [19] = assay: Antibacterial activity against Bacillus subtilis at 25 ug/well after 24 hrs by agar well diffusion method; settings: read-out: DIZ
Bacillus subtilis [20] = assay: Antibacterial activity against Bacillus subtilis at 50 ug/well after 24 hrs by agar well diffusion method; settings: read-out: DIZ
[21] = Antifungal activity against Penicillium chrysogenum assessed as inhibition of spore germination at 12.5 ug/well after 48 hrs by agar well diffusion method
Staphylococcus aureus [22] = assay: Antibacterial activity against Staphylococcus aureus at 12.5 ug/well after 24 hrs by agar well diffusion method; settings: read-out: DIZ
Staphylococcus aureus [23] = assay: Antibacterial activity against Staphylococcus aureus at 25 ug/well after 24 hrs by agar well diffusion method; settings: read-out: DIZ

Nc1nnc(CS(=O)(=O)C2=NNCC2c2ccc(Cl)cc2)s1 (stereo not drawn)
inhibition zone (IZ) [1]: 13 mm
zone of inhibition at 100 µg/disc (Aspergillus niger [2]): 11 mm
inhibition zone (IZ) [3]: 10 mm
zone of inhibition at 50 µg/disc (Aspergillus niger [4]): 10 mm

Nc1nnc(CS(=O)(=O)C2=NNCC2c2ccccc2)s1 (stereo not drawn)
inhibition zone (IZ) [1]: 12 mm
zone of inhibition at 100 µg/disc (Aspergillus niger [2]): 9 mm
zone of inhibition at 50 µg/disc (Aspergillus niger [4]): 7 mm

Nc1nnc(CS(=O)(=O)c2n[nH]cc2-c2ccccc2)o1
zone of inhibition at 25 µg/disc (Klebsiella pneumoniae [5]): 12 mm
zone of inhibition at 100 µg/disc (Klebsiella pneumoniae [6]): 16 mm
inhibition zone (IZ) [1]: 16 mm
zone of inhibition at 25 µg/disc (Pseudomonas aeruginosa [7]): 13 mm
zone of inhibition at 100 µg/disc (Aspergillus niger [2]): 13 mm
zone of inhibition at 12.5 µg/disc (Klebsiella pneumoniae [8]): 10 mm
inhibition zone (IZ) [3]: 14 mm
zone of inhibition at 100 µg/disc (Staphylococcus aureus [9]): 14 mm
zone of inhibition at 12.5 µg/disc (Pseudomonas aeruginosa [10]): 11 mm
zone of inhibition at 100 µg/disc (Pseudomonas aeruginosa [11]): 17 mm
zone of inhibition at 50 µg/disc (Staphylococcus aureus [12]): 10 mm
zone of inhibition at 50 µg/disc (Klebsiella pneumoniae [13]): 14 mm
zone of inhibition at 50 µg/disc (Pseudomonas aeruginosa [14]): 15 mm
zone of inhibition at 25 µg/disc (Aspergillus niger [15]): 9 mm
zone of inhibition at 12.5 µg/disc (Bacillus subtilis [16]): 7 mm
inhibition zone (IZ) [17]: 12 mm
zone of inhibition at 100 µg/disc (Bacillus subtilis [18]): 15 mm
zone of inhibition at 50 µg/disc (Aspergillus niger [4]): 11 mm
zone of inhibition at 25 µg/disc (Bacillus subtilis [19]): 9 mm
zone of inhibition at 50 µg/disc (Bacillus subtilis [20]): 11 mm

Cc1ccc(-c2c[nH]nc2S(=O)(=O)Cc2nnc(N)o2)cc1
zone of inhibition at 100 µg/disc (Klebsiella pneumoniae [6]): 14 mm
inhibition zone (IZ) [1]: 14 mm
zone of inhibition at 25 µg/disc (Pseudomonas aeruginosa [7]): 10 mm
zone of inhibition at 100 µg/disc (Aspergillus niger [2]): 10 mm
inhibition zone (IZ) [3]: 11 mm
zone of inhibition at 100 µg/disc (Staphylococcus aureus [9]): 12 mm
zone of inhibition at 12.5 µg/disc (Pseudomonas aeruginosa [10]): 9 mm
zone of inhibition at 100 µg/disc (Pseudomonas aeruginosa [11]): 14 mm
zone of inhibition at 50 µg/disc (Klebsiella pneumoniae [13]): 12 mm
zone of inhibition at 50 µg/disc (Pseudomonas aeruginosa [14]): 12 mm
zone of inhibition at 25 µg/disc (Aspergillus niger [15]): 8 mm
zone of inhibition at 12.5 µg/disc (Bacillus subtilis [16]): 6 mm
zone of inhibition at 100 µg/disc (Bacillus subtilis [18]): 11 mm
zone of inhibition at 50 µg/disc (Aspergillus niger [4]): 10 mm
zone of inhibition at 25 µg/disc (Bacillus subtilis [19]): 7 mm
zone of inhibition at 50 µg/disc (Bacillus subtilis [20]): 9 mm

Cc1ccc(C2CNN=C2S(=O)(=O)Cc2nnc(N)s2)cc1 (stereo not drawn)
inhibition zone (IZ) [1]: 11 mm
zone of inhibition at 100 µg/disc (Aspergillus niger [2]): 8 mm
zone of inhibition at 50 µg/disc (Aspergillus niger [4]): 4 mm

Cc1ccc(-c2c[nH]cc2S(=O)(=O)Cc2nnc(N)o2)cc1
zone of inhibition at 100 µg/disc (Klebsiella pneumoniae [6]): 12 mm
inhibition zone (IZ) [1]: 14 mm
zone of inhibition at 100 µg/disc (Aspergillus niger [2]): 9 mm
inhibition zone (IZ) [21]: 8 mm
inhibition zone (IZ) [3]: 12 mm
zone of inhibition at 100 µg/disc (Staphylococcus aureus [9]): 10 mm
zone of inhibition at 100 µg/disc (Pseudomonas aeruginosa [11]): 11 mm
zone of inhibition at 50 µg/disc (Pseudomonas aeruginosa [14]): 10 mm
inhibition zone (IZ) [17]: 10 mm
zone of inhibition at 100 µg/disc (Bacillus subtilis [18]): 10 mm
zone of inhibition at 50 µg/disc (Aspergillus niger [4]): 7 mm

Nc1nnc(CS(=O)(=O)c2c[nH]cc2-c2ccc(Cl)cc2)o1
zone of inhibition at 25 µg/disc (Klebsiella pneumoniae [5]): 10 mm
zone of inhibition at 100 µg/disc (Klebsiella pneumoniae [6]): 14 mm
inhibition zone (IZ) [1]: 18 mm
zone of inhibition at 25 µg/disc (Pseudomonas aeruginosa [7]): 11 mm
zone of inhibition at 100 µg/disc (Aspergillus niger [2]): 14 mm
zone of inhibition at 12.5 µg/disc (Klebsiella pneumoniae [8]): 8 mm
inhibition zone (IZ) [21]: 12 mm
inhibition zone (IZ) [3]: 16 mm
zone of inhibition at 100 µg/disc (Staphylococcus aureus [9]): 12 mm
zone of inhibition at 12.5 µg/disc (Pseudomonas aeruginosa [10]): 9 mm
zone of inhibition at 12.5 µg/disc (Staphylococcus aureus [22]): 7 mm
zone of inhibition at 100 µg/disc (Pseudomonas aeruginosa [11]): 15 mm
zone of inhibition at 50 µg/disc (Staphylococcus aureus [12]): 9 mm
zone of inhibition at 50 µg/disc (Klebsiella pneumoniae [13]): 12 mm
zone of inhibition at 50 µg/disc (Pseudomonas aeruginosa [14]): 13 mm
zone of inhibition at 25 µg/disc (Staphylococcus aureus [23]): 8 mm
zone of inhibition at 25 µg/disc (Aspergillus niger [15]): 10 mm
inhibition zone (IZ) [17]: 14 mm
zone of inhibition at 100 µg/disc (Bacillus subtilis [18]): 13 mm
zone of inhibition at 50 µg/disc (Aspergillus niger [4]): 9 mm
zone of inhibition at 50 µg/disc (Bacillus subtilis [20]): 11 mm

Nc1nnc(CS(=O)(=O)c2c[nH]cc2-c2ccccc2)o1
zone of inhibition at 100 µg/disc (Klebsiella pneumoniae [6]): 13 mm
inhibition zone (IZ) [1]: 16 mm
zone of inhibition at 25 µg/disc (Pseudomonas aeruginosa [7]): 10 mm
zone of inhibition at 100 µg/disc (Aspergillus niger [2]): 12 mm
inhibition zone (IZ) [21]: 11 mm
inhibition zone (IZ) [3]: 14 mm
zone of inhibition at 100 µg/disc (Staphylococcus aureus [9]): 11 mm
zone of inhibition at 12.5 µg/disc (Pseudomonas aeruginosa [10]): 8 mm
zone of inhibition at 100 µg/disc (Pseudomonas aeruginosa [11]): 14 mm
zone of inhibition at 50 µg/disc (Klebsiella pneumoniae [13]): 11 mm
zone of inhibition at 50 µg/disc (Pseudomonas aeruginosa [14]): 12 mm
zone of inhibition at 25 µg/disc (Aspergillus niger [15]): 8 mm
inhibition zone (IZ) [17]: 12 mm
zone of inhibition at 100 µg/disc (Bacillus subtilis [18]): 12 mm
zone of inhibition at 50 µg/disc (Aspergillus niger [4]): 10 mm
